{"source": "paper PMC7395068", "about": "“The evolution of strategies to minimise the risk of human drug-induced liver injury (DILI) in drug discovery and development” (Archives of Toxicology, 2020)", "key": {"[1]": {"system": "primary human hepatocytes, NIH3T3 fibroblasts, BSEP, CYP3A4", "details": "cited from earlier work"}, "hLiMTs [2]": {"system": "hLiMTs", "assay": "Combined HCI (HCS) and cellular ATP 3D assay in hLiMTs", "details": "for AC50 / minimal effective concentration: Homo sapiens"}, "[3]": {"system": "THLE-Null and THLE-3A4 cells", "details": "In vitro Assay; ref Gustafsson 2014; cited from earlier work"}, "[4]": {"details": "cited from earlier work"}, "[5]": {"details": "ref Chen 2011; cited from earlier work"}, "[6]": {"details": "read-out: Human plasma Cmax; total plasma Cmax.tot, median of 9 literature references; cited from earlier work"}, "PHH spheroids": {"system": "PHH spheroids", "details": "cited from earlier work"}, "[7]": {"details": "cited from earlier work", "remark": "listed apart in the source"}, "PHH": {"system": "PHH", "details": "cited from earlier work"}, "[8]": {"system": "THLE or HepG2 cells, isolated mitochondria, BSEP", "details": "cited from earlier work"}, "rBsep": {"system": "rBsep", "details": "In vitro Assay; ref Dawson 2012; cited from earlier work"}, "[9]": {"details": "plasma free fraction; cited from earlier work"}, "[10]": {"system": "HepG2 C3A spheroid, BSEP, Glu/Gal in HepG2 cells, bioactivation", "details": "cited from earlier work"}, "[11]": {"system": "HepG2 cells, primary human hepatocytes", "details": "In vitro Assay; ref Garside 2014; cited from earlier work"}, "PHH 3D spheroids": {"system": "PHH 3D spheroids", "parameters": "method as in Bell et al. 2018", "details": "14-day exposure, three donors, ref Bell et al. 2018; cited from earlier work"}, "hLiMTs [12]": {"system": "hLiMTs", "details": "cited from earlier work"}, "HepaRG spheroids": {"system": "HepaRG spheroids", "assay": "Combined HCI (HCS) and cellular ATP 3D assay in HepaRG spheroids", "details": "for AC50 / minimal effective concentration: Homo sapiens"}, "OATP1B1": {"system": "OATP1B1", "details": "known substrates; cited from earlier work"}, "[13]": {"assay": "Plasma free fraction (fu) and unbound Cmax (Cmax,u)", "format": "in vitro ADME, human", "details": "unbound plasma Cmax", "description": "The prediction of DILI severity was evaluated further using the 3D combined HCI assays using plasma-free fraction. The majority of fu values were obtained from literature, when unavailable in-house prediction was utilised. Unbound plasma Cmax concentrations (Cmax,u) were derived by multiplying total plasma Cmax with the corresponding free fraction (fu) for each compound."}, "[14]": {"details": "In vitro Assay, ref Schadt 2015"}, "[15]": {"details": "Microtissue model structural based (HCI), combined HCS and ATP, MEC < 25 × Cmax.tot cut-off"}, "[16]": {"details": "In vitro Assay, ref Proctor 2017"}, "[17]": {"details": "Modeled in vitro assays (cytotoxicity, mitochondrial dysfunction, BSEP), ref Aleo et al. 2019"}}, "note": "Read-outs that look alike come from different tables or passages of the source.", "data": [{"smiles": "COc1ccccc1Oc1c(NS(=O)(=O)c2ccc(C(C)(C)C)cc2)nc(-c2ncccn2)nc1OCCO", "note": "[bosentan]", "values": [{"measurement": "DILI in vitro assay prediction, Schadt (2015)", "setting": "[1]; BSEP & Metabolism based, ref Schadt et al. 2015", "result": "+VE"}, {"measurement": "Cellular toxicity (3T3 cells)", "setting": "[1]; [14]", "result": "-VE"}, {"measurement": "Combined Assay", "setting": "[1]; [14]", "result": "+VE"}, {"measurement": "GSH adduct HML", "setting": "[1]; [14]", "result": "+VE"}, {"measurement": "Hepatocyte cellular toxicity", "setting": "[1]; [14]", "result": "+VE"}, {"measurement": "MitoTox 3T3", "setting": "[1]; [14]", "result": "-VE"}, {"measurement": "TDI CYP3A4", "setting": "[1]; [14]", "result": "-VE"}, {"measurement": "hBSEP inhibition", "setting": "[1]; [14]", "result": "+VE"}, {"measurement": "AC50", "setting": "hLiMTs [2]; read-out: ATP endpoint AC50", "result": 57.9, "unit": "µM"}, {"measurement": "minimal effective concentration", "setting": "hLiMTs [2]; read-out: ATP endpoint MEC", "result": 29.4, "unit": "µM"}, {"measurement": "AC50", "setting": "hLiMTs [2]; read-out: HCS endpoint AC50", "result": 179, "unit": "µM"}, {"measurement": "minimal effective concentration", "setting": "hLiMTs [2]; read-out: HCS endpoint MEC", "result": 63, "unit": "µM"}, {"measurement": "DILI prediction hLiMTs (HCS-MEC)", "setting": "hLiMTs [2]; [15]", "result": "+VE (MEC < 25 × Cmax.tot cut-off)"}, {"measurement": "hLiMTs <25x Avg Cmax ATP", "setting": "hLiMTs [2]; hLiMTs, ATP endpoint, cut-off <25x Avg Cmax", "result": "+ve"}, {"measurement": "hLiMTs <100x Avg Cmaxu ATP", "setting": "hLiMTs [2]; hLiMTs, ATP endpoint, cut-off <100x Avg Cmaxu", "result": "-ve"}, {"measurement": "hLiMTs <25x Avg Cmax HCS", "setting": "hLiMTs [2]; hLiMTs, HCS endpoints, cut-off <25x Avg Cmax", "result": "+ve"}, {"measurement": "hLiMTs <100x Avg Cmaxu HCS", "setting": "hLiMTs [2]; hLiMTs, HCS endpoints, cut-off <100x Avg Cmaxu", "result": "-ve"}, {"measurement": "hLiMTs <25x Avg Cmax All", "setting": "hLiMTs [2]; hLiMTs, all endpoints (ATP and HCS), cut-off <25x Avg Cmax", "result": "+ve"}, {"measurement": "hLiMTs Cmax max All", "setting": "hLiMTs [2]; hLiMTs, all endpoints, Cmax max used", "result": "+ve"}, {"measurement": "hLiMTs Cmax min All", "setting": "hLiMTs [2]; hLiMTs, all endpoints, Cmax min used", "result": "+ve"}, {"measurement": "hLiMTs <10 uM All", "setting": "hLiMTs [2]; hLiMTs, all endpoints, cut-off <10 uM", "result": "-ve"}, {"measurement": "hLiMTs <100x Avg Cmaxu All", "setting": "hLiMTs [2]; hLiMTs, all endpoints, cut-off <100x Avg Cmaxu", "result": "-ve"}, {"measurement": "THLE-Null", "setting": "[3]", "result": "-VE"}, {"measurement": "THLE-Null/3A4", "setting": "[3]", "result": "-VE"}, {"measurement": "Assigned DILI category", "setting": "[4]; Chen et al. 2016 or literature alignment, ref Chen et al. 2016", "result": 3}, {"measurement": "In vivo DILI", "setting": "[4]; ref Aleo 2019", "result": "+VE"}, {"measurement": "In vivo DILI", "setting": "[4]; ref Dawson 2012", "result": "+VE"}, {"measurement": "In vivo DILI", "setting": "[4]; ref Garside 2014", "result": "+VE"}, {"measurement": "In vivo DILI", "setting": "[4]; ref Gustafsson 2014", "result": "+VE"}, {"measurement": "In vivo DILI", "setting": "[4]; ref Proctor 2017", "result": "+VE"}, {"measurement": "In vivo DILI", "setting": "[4]; ref Schadt 2015", "result": "+VE"}, {"measurement": "In vivo DILI", "setting": "[4]; ref Vorrink 2018", "result": "+VE"}, {"measurement": "In vivo DILI", "setting": "[4]; ref Williams 2019", "result": "+VE"}, {"measurement": "DILI Score (FDA) (1-8)", "setting": "[5]", "result": 7}, {"measurement": "Cmax", "setting": "[6]", "result": 7.43, "unit": "µM"}, {"measurement": "hLiMTs ATP <20 x Cmax", "setting": "PHH spheroids; In vitro Assay, ref Vorrink 2018", "result": "+VE (IC20 < 20 × Cmax.tot cut-off)"}, {"measurement": "DILI in vitro assay prediction, Vorrink (2018)", "setting": "PHH spheroids; PHH spheroids, ATP, 14 days, IC20 < 20 × Cmax.tot, ref Vorrink et al. 2018", "result": "+VE (IC20 < 20 × Cmax.tot cut-off)"}, {"measurement": "DILI severity category (Chen et al. [2016])", "setting": "[7]; LTKB DILIrank category, ref Chen et al. 2016", "result": "Most"}, {"measurement": "DILI severity category (Chen 2016)", "setting": "[7]; human DILI classification, LTKB DILIrank, ref Chen et al. 2016", "result": "Most"}, {"measurement": "DILI severity category", "setting": "[7]; human DILI severity, ref Chen et al.", "result": "Most"}, {"measurement": "DILI +VE (5-8), DILI -VE (-4)", "setting": "[7]; ref Chen 2016", "result": "+VE"}, {"measurement": "DILI severity category", "setting": "[7]; ref Chen 2016", "result": "vMost-DILI-Concern"}, {"measurement": "PHH/100xCmax, Proctor (2017)", "setting": "PHH; 2D PHH, ATP, IC50 < 100 × Cmax.tot, ref Proctor et al. 2017", "result": "-VE"}, {"measurement": "PHH/100uM, Proctor (2017)", "setting": "PHH; 2D PHH, ATP, IC50 threshold 100 µM, ref Proctor et al. 2017", "result": "-VE"}, {"measurement": "PHH ATP <100uM", "setting": "PHH; [16]", "result": "-VE"}, {"measurement": "Partition Hybrid HRM Score", "setting": "[8]; In vitro Assay, ref Aleo 2019", "result": "+VE"}, {"measurement": "Ro2 Hybrid HRM Score", "setting": "[8]; In vitro Assay, ref Aleo 2019", "result": "+VE"}, {"measurement": "Partition Hybrid HRM Score ≥4, Aleo (2019)", "setting": "[8]; [17]", "result": "+VE (Partition Hybrid HRM Score ≥4)"}, {"measurement": "Partition Hybrid HRM Score ≥8, Aleo (2019)", "setting": "[8]; [17]", "result": "+VE (Partition Hybrid HRM Score ≥8)"}, {"measurement": "Rule of Two hybrid HRM Score ≥3, Aleo (2019)", "setting": "[8]; [17]", "result": "+VE (Rule of Two hybrid HRM Score ≥3)"}, {"measurement": "Rule of Two hybrid HRM Score ≥8, Aleo (2019)", "setting": "[8]; [17]", "result": "+VE (Rule of Two hybrid HRM Score ≥8)"}, {"measurement": "Inhibition of rBsep cutoff<1& cmax u>.2", "setting": "rBsep", "result": "+VE"}, {"measurement": "Inhibition of rBsep cutoff<3", "setting": "rBsep", "result": "+VE"}, {"measurement": "fu", "setting": "[9]", "result": 0.020}, {"measurement": "Bayesian Machine Learning DILI prediction, Williams (2019)", "setting": "[10]; Bayesian modeling, ref Williams et al. 2019", "result": "+VE"}, {"measurement": "Bayesian Machine Learning", "setting": "[10]; In vitro Assay, ref Williams 2019", "result": "+VE"}, {"measurement": "Cluster 1-6 +VE Assay", "setting": "[11]", "result": "-VE"}, {"measurement": "detection at 10 × Cmax.tot cut-off", "setting": "PHH 3D spheroids", "result": "only detected by one of three donors"}, {"measurement": "hLiMTs ATP <100uM", "setting": "hLiMTs [12]; [16]", "result": "+VE (IC50 threshold of 100 µM)"}, {"measurement": "hLiMTs/100xCmax, Proctor (2017)", "setting": "hLiMTs [12]; hLiMTs, ATP, IC50 < 100 × Cmax.tot, ref Proctor et al. 2017", "result": "+VE (IC50 < 100 × Cmax.tot)"}, {"measurement": "hLiMTs/100uM, Proctor (2017)", "setting": "hLiMTs [12]; hLiMTs, ATP, IC50 threshold 100 µM, ref Proctor et al. 2017", "result": "+VE (IC50 threshold of 100 µM)"}, {"measurement": "HepaRG <25x Avg Cmax ATP", "setting": "HepaRG spheroids; HepaRG, ATP endpoint, cut-off <25x Avg Cmax", "result": "+ve"}, {"measurement": "HepaRG <100x Avg Cmaxu ATP", "setting": "HepaRG spheroids; HepaRG, ATP endpoint, cut-off <100x Avg Cmaxu", "result": "-ve"}, {"measurement": "HepaRG <25x Avg Cmax HCS", "setting": "HepaRG spheroids; HepaRG, HCS endpoints, cut-off <25x Avg Cmax", "result": "+ve"}, {"measurement": "HepaRG <100x Avg Cmaxu HCS", "setting": "HepaRG spheroids; HepaRG, HCS endpoints, cut-off <100x Avg Cmaxu", "result": "-ve"}, {"measurement": "HepaRG <25x Avg Cmax All", "setting": "HepaRG spheroids; HepaRG, all endpoints (ATP and HCS), cut-off <25x Avg Cmax", "result": "+ve"}, {"measurement": "HepaRG Cmax max All", "setting": "HepaRG spheroids; HepaRG, all endpoints, Cmax max used", "result": "+ve"}, {"measurement": "HepaRG Cmax min All", "setting": "HepaRG spheroids; HepaRG, all endpoints, Cmax min used", "result": "+ve"}, {"measurement": "HepaRG <10 uM All", "setting": "HepaRG spheroids; HepaRG, all endpoints, cut-off <10 uM", "result": "-ve"}, {"measurement": "HepaRG <100x Avg Cmaxu All", "setting": "HepaRG spheroids; HepaRG, all endpoints, cut-off <100x Avg Cmaxu", "result": "-ve"}, {"measurement": "AC50", "setting": "HepaRG spheroids; HepaRG, read-out: ATP endpoint AC50", "result": 74.7, "unit": "µM"}, {"measurement": "minimal effective concentration", "setting": "HepaRG spheroids; HepaRG, read-out: ATP endpoint MEC", "result": 35.2, "unit": "µM"}, {"measurement": "AC50", "setting": "HepaRG spheroids; HepaRG, read-out: HCS endpoint AC50", "result": 125, "unit": "µM"}, {"measurement": "minimal effective concentration", "setting": "HepaRG spheroids; HepaRG, read-out: HCS endpoint MEC", "result": 40, "unit": "µM"}, {"measurement": "DILI prediction HepaRG spheroids (HCS-MEC)", "setting": "HepaRG spheroids; [15]", "result": "+VE (MEC < 25 × Cmax.tot cut-off)"}, {"measurement": "substrate for hepatic uptake transporter OATP1B1", "setting": "OATP1B1", "result": "known substrates"}, {"measurement": "Human plasma Cmax,u", "setting": "[13]", "result": 0.149, "unit": "µM"}]}]}
